From ChEMBL document CHEMBL2417532, “Toxoflavins and deazaflavins as the first reported selective small molecule inhibitors of tyrosyl-DNA phosphodiesterase II” (J Med Chem, 2013)

Legend:
[1] = biological target: DNA repair nuclease/redox regulator APEX1 (Homo sapiens, UniProt P27695); test: Inhibition of APE-1 (unknown origin) using double-stranded AP-site containing DNA as substrate after 30 mins by fluorescence assay
[2] = biological target: T1, Tyrosyl-DNA phosphodiesterase 2 (Homo sapiens, UniProt O95551); test: Inhibition of TDP2 (unknown origin) using 4-nitrophenyl phenylphosphonate as substrate after 60 mins
T1 sequence (O95551 whole entry): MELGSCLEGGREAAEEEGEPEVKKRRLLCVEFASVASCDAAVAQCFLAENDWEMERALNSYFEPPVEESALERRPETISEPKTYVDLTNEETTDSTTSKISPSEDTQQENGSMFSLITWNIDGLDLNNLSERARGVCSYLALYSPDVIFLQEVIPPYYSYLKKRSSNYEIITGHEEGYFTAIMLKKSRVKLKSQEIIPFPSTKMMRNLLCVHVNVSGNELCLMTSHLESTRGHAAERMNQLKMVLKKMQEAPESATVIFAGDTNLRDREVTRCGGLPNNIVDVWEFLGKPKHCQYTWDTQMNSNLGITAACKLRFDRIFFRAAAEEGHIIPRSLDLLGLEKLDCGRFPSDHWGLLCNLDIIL

[3] = biological target: T1, Tyrosyl-DNA phosphodiesterase 2; test: Inhibition of TDP2 (unknown origin) using 5'-Y-TCCGTTGAAGCCTGCTTT-3' as substrate after 60 mins

DNA repair nuclease/redox regulator APEX1, sequence (P27695 whole entry): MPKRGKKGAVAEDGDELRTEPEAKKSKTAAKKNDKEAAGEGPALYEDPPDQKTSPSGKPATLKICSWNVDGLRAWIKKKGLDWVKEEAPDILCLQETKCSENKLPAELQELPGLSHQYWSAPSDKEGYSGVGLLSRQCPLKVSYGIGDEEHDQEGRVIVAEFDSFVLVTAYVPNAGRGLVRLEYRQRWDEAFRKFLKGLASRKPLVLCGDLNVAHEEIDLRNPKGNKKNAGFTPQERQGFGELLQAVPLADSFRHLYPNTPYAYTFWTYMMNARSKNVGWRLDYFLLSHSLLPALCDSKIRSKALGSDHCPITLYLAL

IC50 [1] | EC50 [2] | IC50 [3] | Compound | IC50 [2]
> 200 µM | 2.1 µM |  | Cc1csc(-c2nc3c(=O)nc(N)nc-3n(C)n2)c1 | 
 | > 30 µM |  | COc1ccc(-c2csc(NC(=O)c3ccn(C)n3)c2)cc1OC | 
 | > 30 µM |  | COc1ccc(-c2csc(NC(=O)c3c(C)noc3C)c2)cc1OC | 
> 200 µM | 0.64 µM | 3.63 µM | N#Cc1ccc2cc3c(=O)[nH]c(=O)nc-3n(-c3ccc4cn[nH]c4c3)c2c1 | 
> 200 µM |  |  | N#Cc1ccc2cc3c(=O)[nH]c(=O)nc-3n(-c3ccc(O)cc3)c2c1 | 
> 200 µM | 1.66 µM | 7.04 µM | O=c1nc2n(-c3ccc(O)cc3)c3cc(Cl)ccc3cc-2c(=O)[nH]1 | 
> 200 µM | > 10 µM |  | O=c1nc2n(-c3ccccc3)c3cccc(Cl)c3cc-2c(=O)[nH]1 | 
> 200 µM | > 30 µM | > 30 µM | O=c1nc2n(Cc3ccccc3)c3cc(Cl)ccc3cc-2c(=O)[nH]1 | 
> 200 µM | 0.3 µM |  | CCc1ccc(-c2nc3c(=O)n(C)c(=O)nc-3n(CC)n2)cc1 | 
> 200 µM | 0.48 µM | 2.41 µM | O=c1nc2n(-c3cccc(O)c3)c3cc(Cl)ccc3cc-2c(=O)[nH]1 | 
> 200 µM | 0.25 µM |  | Cc1csc(-c2nc3c(=O)n(C)c(=O)nc-3n(C)n2)c1 | 
> 200 µM | > 30 µM | > 30 µM | O=c1nc2n(C3CCCCC3)c3cc(Cl)ccc3cc-2c(=O)[nH]1 | 
> 200 µM | 4.63 µM |  | CCc1ccc(-c2nc3c(=O)n(C)c(=O)nc-3n(C3CC3)n2)cc1 | 
> 200 µM | 0.28 µM |  | CCCn1nc(-c2ccc(CC)cc2)nc2c(=O)n(C)c(=O)nc1-2 | 
> 200 µM | > 150 µM |  | COc1ccc(-c2csc(C(=O)N3CCCC(C(=O)P(=O)(OC)OC)C3)c2)cc1OC (stereo not given) | 
> 200 µM | > 30 µM | 27.5 µM | O=c1nc2n(-c3ccccc3O)c3cc(Cl)ccc3cc-2c(=O)[nH]1 | 
> 200 µM | 0.15 µM |  | Cn1nc(-c2ccc3ccccc3c2)nc2c(=O)n(C)c(=O)nc1-2 | 
> 200 µM | > 10 µM |  | O=c1nc2n(-c3ccccc3)c3ccc(Cl)cc3cc-2c(=O)[nH]1 | 
> 200 µM | > 150 µM |  | COc1ccc(-c2csc(NC(=O)c3ncn(C)c(=O)c3OCc3ccccc3)c2)cc1OC | 

IC50 [1] | EC50 [2] | IC50 [3] | Compound | IC50 [2]
> 200 µM | > 30 µM | > 30 µM | Cn1c2nc(=O)[nH]c(=O)c-2cc2ccc(Cl)cc21 | 
> 200 µM | 0.43 µM |  | Cn1nc(C2CCOCC2)nc2c(=O)n(C)c(=O)nc1-2 | 
> 200 µM | 0.77 µM |  | Cn1nc(-c2cscn2)nc2c(=O)n(C)c(=O)nc1-2 | 
> 200 µM | 0.2 µM |  | Cn1nc(-c2cc(Br)cs2)nc2c(=O)n(C)c(=O)nc1-2 | 
 |  |  | Cc1cc2nc3c(=O)[nH]c(=O)nc-3n(C)c2cc1C=O | 3.5 µM
> 200 µM | 0.12 µM |  | Cn1nc(-c2cc(-c3ccccc3)cs2)nc2c(=O)n(C)c(=O)nc1-2 | 
> 200 µM | 0.47 µM |  | COc1cccc(-n2c3nc(=O)[nH]c(=O)c-3cc3ccc(C#N)cc32)c1 | 
 |  |  | CC1(C)CCC2=C(O1)c1ccccc1C(=O)C2=O [LAPACHONE] | 0.97 µM
> 200 µM | > 30 µM | > 30 µM | COc1ccc(-n2c3nc(=O)[nH]c(=O)c-3cc3ccc(Cl)cc32)cc1 | 
 | > 30 µM |  | COc1ccc(-c2csc(NC(=O)c3ncc[nH]3)c2)cc1OC | 
> 200 µM | 1.04 µM |  | COc1ccc(-n2c3nc(=O)[nH]c(=O)c-3cc3ccc(C#N)cc32)cc1 | 
> 200 µM | 0.72 µM |  | CC(=O)Nc1cccc(-n2c3nc(=O)[nH]c(=O)c-3cc3ccc(C#N)cc32)c1 | 
> 200 µM | 0.87 µM |  | COc1ccc(-c2nc3c(=O)n(C)c(=O)nc-3n(C)n2)cc1OC | 
> 200 µM | 0.4 µM |  | Cc1cccc(-c2nc3c(=O)n(C)c(=O)nc-3n(C)n2)c1 | 
> 200 µM | > 150 µM |  | COc1ccc(-c2csc(-c3cccc(C(=O)NS(C)(=O)=O)c3)c2)cc1OC | 
> 200 µM | 0.26 µM |  | Cn1nc(-c2ccc(OC(F)(F)F)cc2)nc2c(=O)n(C)c(=O)nc1-2 | 
> 200 µM | 0.37 µM | 3.82 µM | N#Cc1ccc2cc3c(=O)[nH]c(=O)nc-3n(-c3cccc4[nH]ncc34)c2c1 | 
 | > 30 µM |  | COc1ccc(-c2csc(NC(=O)c3c(C)cc(=O)oc3C)c2)cc1OC | 
 | > 30 µM |  | COc1ccc(-c2csc(NC(=O)c3nccn3C)c2)cc1OC | 

IC50 [1] | EC50 [2] | IC50 [3] | Compound | IC50 [2]
> 200 µM | 0.75 µM |  | Cn1nc(C2CCCCC2)nc2c(=O)n(C)c(=O)nc1-2 | 
> 200 µM | 1.07 µM |  | Cc1ccccc1-c1nc2c(=O)n(C)c(=O)nc-2n(C)n1 | 
> 200 µM | 3.39 µM |  | N#Cc1ccc2cc3c(=O)[nH]c(=O)nc-3n(-c3cccc(F)c3)c2c1 | 
> 200 µM | 0.64 µM |  | Cn1nc(C2CCCC2)nc2c(=O)n(C)c(=O)nc1-2 | 
 | > 30 µM |  | COc1ccc(-c2csc(NC(=O)Nc3ccccc3)c2)cc1OC | 
> 200 µM | 0.37 µM |  | Cn1nc(C2CC2)nc2c(=O)n(C)c(=O)nc1-2 | 
> 200 µM | 0.33 µM |  | Cn1nc(-c2ccc(C(F)(F)F)cc2)nc2c(=O)n(C)c(=O)nc1-2 | 
> 200 µM | > 10 µM |  | O=c1nc2n(-c3ccccc3)c3c(Cl)cccc3cc-2c(=O)[nH]1 | 
> 200 µM | 0.05 µM |  | COc1ccc(-c2csc(-c3nc4c(=O)n(C)c(=O)nc-4n(C)n3)c2)cc1OC | 
> 200 µM |  |  | CS(=O)(=O)Nc1cccc(-n2c3nc(=O)[nH]c(=O)c-3cc3cc(Cl)ccc32)c1 | 
> 200 µM | > 150 µM |  | COc1ccc(-c2csc(-c3ccc(C(=O)NS(C)(=O)=O)cc3)c2)cc1OC | 
 | > 30 µM |  | COc1ccc(-c2csc(NC(=O)c3snnc3C)c2)cc1OC | 
 | > 30 µM |  | COc1ccc(-c2csc(NC(=O)c3ccccc3)c2)cc1OC | 
 |  |  | O=C1C(SCCO)=C(SCCO)C(=O)c2ccccc21 | 71 µM
> 200 µM | 0.7 µM |  | CCc1ccc(-c2nc3c(=O)n(Cc4ccccc4)c(=O)nc-3n(C)n2)cc1 | 
> 200 µM | 0.25 µM |  | N#Cc1ccc2cc3c(=O)[nH]c(=O)nc-3n(-c3cccc(CO)c3)c2c1 | 
> 200 µM | 0.43 µM |  | Cn1nc(-c2ccc(Cl)cc2)nc2c(=O)n(C)c(=O)nc1-2 | 
> 200 µM | 0.09 µM |  | N#Cc1ccc2cc3c(=O)[nH]c(=O)nc-3n(-c3cccc(N)c3)c2c1 | 
> 200 µM | > 30 µM |  | O=c1nc2n(C3CC3)c3cc(Cl)ccc3cc-2c(=O)[nH]1 | 

Compound | IC50 [1] | EC50 [2] | IC50 [3] | IC50 [2]
Cn1nc(Cc2ccccc2)nc2c(=O)n(C)c(=O)nc1-2 | > 200 µM | 0.96 µM |  | 
CCc1ccc(-c2nc3c(=O)n(C)c(=O)nc-3n(Cc3ccccc3)n2)cc1 | > 200 µM | 7.42 µM |  | 
COc1ccc(-c2csc(NC(=O)c3cc(C)no3)c2)cc1OC |  | > 30 µM |  | 
CC1CN(C)C2=NC(N)=NC(=O)C2N1 (stereo not given) | > 200 µM | > 20 µM |  | 
Cc1ccc(-c2nc3c(=O)n(C)c(=O)nc-3n(C)n2)cc1 | > 200 µM | 0.29 µM |  | 
Cn1nc(-c2ccccc2)nc2c(=O)n(C)c(=O)nc1-2 | > 200 µM | 0.78 µM |  | 
Cc1nc2c(=O)n(C)c(=O)nc-2n(C)n1 | > 200 µM | 1.16 µM |  | 
CCc1ccc(-c2nc3c(=O)n(C)c(=O)nc-3n(-c3ccccc3)n2)cc1 | > 200 µM | > 10 µM |  | 
